# Test results published in patent US8802895B2, “Amide derivatives of benzene-sulfonanilide, pharmaceutical composition thereof and method for cancer treatment using the same” (Cleveland State University, priority 2010, dated 2014).
# Where two headings read alike, the source gives them in different places.
# What was measured:
# cells = experiment: Primary mechanism study: cell viability with compound #10 and 2-APB (FIG. 10); format: cell-based; conditions: 2-APB added two hours before compound #10; cell viability after 48 hours
# Method: For the experiment, 2-APB was first added. […] The control cells were treated with same amount of DMSO to carry the drugs. The cell viability was evaluated after 48 hours.
# SKBR-3 cells = experiment: MTT cell viability assay with SKBR-3 cells; format: cell-based; conditions: Homo sapiens, SK-BR-3
# Method: SKBR-3 cells were obtained from ATCC (Rockville, Md.). […] Bovine serum was heat inactivated for 30 min in a 56° C. water bath before use. Cell cultures were grown at 37° C., in a humidified atmosphere of 5% CO2 in a Hereaus CO2 incubator. For all experiments, cells were seeded in 96 well plates with 5000 cells/well density.
# Cells were grown in custom medium in 96-well, flat-bottomed plates for 24 h, and were exposed to various concentrations of nimesulide derivatives dissolved in DMSO (final concentration≦0.1%) in media for different time intervals. Controls received DMSO vehicle at a concentration equal to that in drug-treated cells. […] Supernatants were removed from the wells, and the reduced 3-(4,5-dimethylthiazol-2-yl)-2,5-diphenyl-2H-tetrazolium bromide dye was solubilized in 200 μl/well DMSO. Absorbance at 570 nm was determined on a plate reader.
# [1] = SKBR-3 cells, cell viability, read-out: IC50
Compound,IC50 (SKBR-3 cells; [1]),also measured
"NCCOB(c1ccccc1)c1ccccc1 [Compound 2-APB, 2-aminoethoxydiphenyl borate, reference compound]",,rescue of cell death from compound #10 treatment (cell viability) (cells): can partially rescue the cell death from compound #10 treatment
"COc1ccc(OC)c(COc2cc(NC(=O)c3ccc(I)cc3)ccc2N(C)S(C)(=O)=O)c1 [Compound #40, N-[3-(2,5-dimethoxyl-benzyloxy)-4-(methanesulfonyl-methyl-amino)-phenyl]-4-iodo-benzamide]",1.8 ± 0.7 nM,
"COc1ccc(C(=O)Nc2ccc(N(C)S(C)(=O)=O)c(OCc3cc(OC)ccc3OC)c2)cc1 [Compound #41, N-[3-(2,5-dimethoxy-benzyloxy)-4-(methanesulfonyl-methyl-amino)-phenyl]-4-methoxy-benzamide]",0.87 ± 0.33 nM,
"COc1ccc(OC)c(COc2cc(NC(=O)c3ccc(Br)cc3)ccc2N(C)S(C)(=O)=O)c1 [Compound #42, N-[3-(2,5-dimethoxy-benzyloxy)-4-(methanesulfonyl-methyl-amino)-phenyl]-4-bromobenzamide]",,IC50 (SKBR-3 cells): 3.5 ± 1.9 nM
"COc1ccc(OC)c(COc2cc(NC(=O)c3ccc4c(c3)OCO4)ccc2N(C)S(C)(=O)=O)c1 [Compound #43, N-[3-(2,5-dimethoxyl-benzyloxy)-4-(methanesulfonyl-methyl-amino)-phenyl]-1,3-benzodioxole-5-carboxamide]",,IC50 (SKBR-3 cells): 7.5 ± 2.8 nM
"COc1ccc(OC)c(COc2cc(NC(=O)c3ccc(OC)c(OC)c3)ccc2N(C)S(C)(=O)=O)c1 [Compound #44, N-[3-(2,5-dimethoxyl-benzyloxy)-4-(methanesulfonyl-methyl-amino)-phenyl]-3,4-dimethoxy-benzamide]",2.6 ± 1.3 nM,
"COc1ccc(OC)c(COc2cc(NC(=O)c3ccc4ccccc4c3)ccc2N(C)S(C)(=O)=O)c1 [Compound #45, N-[3-(2,5-dimethoxyl-benzyloxy)-4-(methanesulfonyl-methyl-amino)-phenyl]-2-naphthalenecarboxamide]",16.6 ± 7.7 nM,
